Source: publication doi:10.1101/841569v1 (biorxiv, 2019)

Legend:
Mtb-MenD [1] = molecular target: T1, Mtb-MenD (Mycobacterium tuberculosis, UniProt P9WK11); assay: biochemical
Mtb-MenD [2] = molecular target: T1, Mtb-MenD
Mtb-MenD [3] = molecular target: T1, Mtb-MenD; remark: listed apart in the source

T1 sequence (P9WK11 whole entry): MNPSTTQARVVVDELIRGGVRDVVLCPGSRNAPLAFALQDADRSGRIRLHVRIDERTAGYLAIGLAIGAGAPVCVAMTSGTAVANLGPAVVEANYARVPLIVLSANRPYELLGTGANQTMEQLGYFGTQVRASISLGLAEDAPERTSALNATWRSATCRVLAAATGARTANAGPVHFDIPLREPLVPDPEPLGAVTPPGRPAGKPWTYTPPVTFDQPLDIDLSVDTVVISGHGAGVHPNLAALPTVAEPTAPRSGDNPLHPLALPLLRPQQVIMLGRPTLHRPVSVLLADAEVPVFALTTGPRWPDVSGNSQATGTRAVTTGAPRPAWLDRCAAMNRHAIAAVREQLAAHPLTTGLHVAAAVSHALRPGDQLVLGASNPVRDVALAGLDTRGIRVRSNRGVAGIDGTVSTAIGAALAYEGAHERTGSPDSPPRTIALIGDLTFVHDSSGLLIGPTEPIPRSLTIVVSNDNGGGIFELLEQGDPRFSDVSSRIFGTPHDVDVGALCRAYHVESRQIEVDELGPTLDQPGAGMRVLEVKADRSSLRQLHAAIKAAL

O=C(O)c1cc(O)c2ccccc2c1O [DHNA]
IC50 (Mtb-MenD [1]): 0.053 µM | % of non-inhibited activity at 20 μM (Mtb-MenD [2]): 24 ± 1%

Cc1ncc(C[n+]2csc(CCOP(=O)(O)OP(=O)(O)O)c2C)c(N)n1 [ThDP]
X-ray crystal structure (co-crystallised, 1 mM ThDP) (Mtb-MenD [3]): acofactor (ThDP) bound DHNA complex
